Reference: PubChem BioAssay AID330 (DTP/NCI, 2004)
Several values for one entry are separate records, joined by “and”; a condition that tells them apart may be missing. Equal entries are not always repeated. Inconclusive results and toxic doses are left out. Peptide text beside a SMILES is read from it. * marks the point of attachment. OtBu = CC(C)(C)O*

Tested on: P388 leukemia ip, CD2F1 mice, survival T/C
Assay: NCI In Vivo Anticancer Drug Screen. Data for tumor model P388 Leukemia (intraperitoneal) in CD2F1 (CDF1) mice
Conditions: endpoint: median survival time, higher = longer survival
Summary of the method: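 Mice carrying the transplanted tumor received test compound or vehicle. Survival was recorded in each group, and the value is the treated-group measurement divided by that of the vehicle-treated control group.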

[1] = dose: 60.0 mg/kg/injection, schedule: Q01DX005 (ip), vehicle: saline with Tween-80
[2] = dose: 120.0 mg/kg/injection, schedule: Q01DX005 (ip), vehicle: saline with Tween-80
[3] = dose: 240.0 mg/kg/injection, schedule: Q01DX005 (ip), vehicle: saline with Tween-80
[4] = dose: 60.0 mg/kg/injection, schedule: Q01DX005 (ip), vehicle: Klucel (hydroxypropylcellulose) (HPC)
[5] = dose: 120.0 mg/kg/injection, schedule: Q01DX005 (ip), vehicle: Klucel (hydroxypropylcellulose) (HPC)
[6] = dose: 240.0 mg/kg/injection, schedule: Q01DX005 (ip), vehicle: Klucel (hydroxypropylcellulose) (HPC)
[7] = dose: 50.0 mg/kg/injection, schedule: Q01DX005 (ip), vehicle: saline with Tween-80

In the case of `CN(C)CCOCC(O)(c1ccccc1)c1ccccc1`, the T/C (dose: 50.0 mg/kg/injection, schedule: Q01DX009 (ip), vehicle: suspension in saline) is reported as 100 % of control and the T/C (dose: 100.0 mg/kg/injection, schedule: Q01DX009 (ip), vehicle: suspension in saline) is reported as 103 % of control.

In the case of `[Cl][Pt+2][Cl].[NH-]c1ccc(Cl)cc1[NH-]`, the T/C (dose: 6.25 mg/kg/injection, schedule: Q04DX002 (ip), vehicle: saline with Tween-80) is reported as 150 % of control, the T/C (dose: 12.5 mg/kg/injection, schedule: Q04DX002 (ip), vehicle: saline with Tween-80) is reported as 157 % of control and the T/C (dose: 25.0 mg/kg/injection, schedule: Q04DX002 (ip), vehicle: saline with Tween-80) is reported as 168 % of control.

`Cc1nn(-c2ccccc2)c([O-])c1[N+]#N` was tested, and the T/C (dose: 100.0 mg/kg/injection, schedule: Q04DX002 (ip), vehicle: Klucel (hydroxypropylcellulose) (HPC)) was 102 % of control, the T/C (dose: 200.0 mg/kg/injection, schedule: Q04DX002 (ip), vehicle: Klucel (hydroxypropylcellulose) (HPC)) was 102 % of control and the T/C (dose: 400.0 mg/kg/injection, schedule: Q04DX002 (ip), vehicle: Klucel (hydroxypropylcellulose) (HPC)) was 100 % of control.

`Cc1cccc(NC(=O)Oc2ccc(Cl)cc2C(=O)c2ccccc2)c1` was tested, and the T/C [1] was 97 % of control, the T/C [2] was 98 % of control and the T/C [3] was 105 % of control.

`COC(=O)C1=C(C(=O)OC)SC(=C2C3=C(SC(C(=O)OC)=C(C(=O)OC)S3)c3ccccc32)S1` was tested, and the T/C (dose: 30.0 mg/kg/injection, schedule: Q01DX005 (ip), vehicle: Klucel (hydroxypropylcellulose) (HPC)) was 96 % of control, the T/C [4] was 87 % of control and 91 % of control and the T/C [5] was 89 % of control. The T/C [6] was 86 % of control.

With `CNc1nc2c(N)ncnc2n1C1OC(CO)C(O)C1O` (stereo unspecified) the T/C (dose: 6.25 mg/kg/injection, schedule: Q01DX009 (ip), vehicle: suspension in saline) was 94 % of control and the T/C (dose: 12.5 mg/kg/injection, schedule: Q01DX009 (ip), vehicle: suspension in saline) was 112 % of control.

In the case of `CC1=CC(=O)C=CC1(C)C(Cl)(Cl)Cl` (stereo unspecified), the T/C (dose: 50.0 mg/kg/injection, schedule: Q01DX009 (ip), vehicle: saline with Tween-80) is reported as 110 % of control, the T/C (dose: 100.0 mg/kg/injection, schedule: Q01DX009 (ip), vehicle: saline with Tween-80) is reported as 110 % of control and the T/C (dose: 200.0 mg/kg/injection, schedule: Q01DX009 (ip), vehicle: saline with Tween-80) is reported as 105 % of control.

In the case of `CN(N=O)C(=O)NCC1OC(OC2(CO)OC(CNC(=O)N(C)N=O)C(O)C2O)C(O)C(O)C1O` (stereo unspecified), the T/C (dose: 50.0 mg/kg/injection, schedule: Q01DX009 (ip), vehicle: saline) is reported as 103 % of control and 109 % of control and 120 % of control, the T/C (dose: 100.0 mg/kg/injection, schedule: Q01DX009 (ip), vehicle: saline) is reported as 112 % of control and 120 % of control and the T/C (dose: 200.0 mg/kg/injection, schedule: Q01DX009 (ip), vehicle: saline) is reported as 104 % of control.

With `N#Cc1c(-c2ccc(Cl)cc2)cn2c1[nH]c(=O)c1ccccc12` the T/C [1] was 107 % of control, the T/C [2] was 102 % of control and the T/C [3] was 96 % of control.

`CC(=O)NC(CCc1ccc(Cl)c(Cl)c1)c1cccc(O)c(=O)c1` (stereo unspecified) was tested, and the T/C (dose: 12.5 mg/kg/injection, schedule: Q01DX009 (ip), vehicle: Klucel (hydroxypropylcellulose) (HPC)) was 105 % of control and 110 % of control and the T/C (dose: 25.0 mg/kg/injection, schedule: Q01DX009 (ip), vehicle: Klucel (hydroxypropylcellulose) (HPC)) was 106 % of control and 122 % of control.

For `O=C1COc2ccccc2OCCOCCOc2ccccc2OC1`, the T/C [1] was 97 % of control, the T/C [2] was 98 % of control and the T/C [3] was 96 % of control.

With `N#CC(C#N)=NNc1c(Br)cc(Cl)cc1Br` the T/C (dose: 1.56 mg/kg/injection, schedule: Q01DX009 (ip), vehicle: Klucel (hydroxypropylcellulose) (HPC)) was 104 % of control, the T/C (dose: 3.12 mg/kg/injection, schedule: Q01DX009 (ip), vehicle: Klucel (hydroxypropylcellulose) (HPC)) was 105 % of control and the T/C (dose: 6.25 mg/kg/injection, schedule: Q01DX009 (ip), vehicle: Klucel (hydroxypropylcellulose) (HPC)) was 116 % of control and 97 % of control.

For `OC1CC2OC2C1O` (stereo unspecified), the T/C (dose: 60.0 mg/kg/injection, schedule: Q01DX005 (ip), vehicle: saline) was 103 % of control, the T/C (dose: 120.0 mg/kg/injection, schedule: Q01DX005 (ip), vehicle: saline) was 111 % of control and the T/C (dose: 240.0 mg/kg/injection, schedule: Q01DX005 (ip), vehicle: saline) was 111 % of control.

In the case of `CN(C)CCN(C)CCN1C(=O)c2ccccc2C1=O`, the T/C (dose: 100.0 mg/kg/injection, schedule: Q04DX002 (ip), vehicle: saline) is reported as 102 % of control, the T/C (dose: 200.0 mg/kg/injection, schedule: Q04DX002 (ip), vehicle: saline) is reported as 100 % of control and the T/C (dose: 400.0 mg/kg/injection, schedule: Q04DX002 (ip), vehicle: saline) is reported as 100 % of control.

With `CCN(CC)c1ccc(C(=C2C=CC(=[N+](CC)CC)C=C2)c2ccc(N(CC)CC)cc2)cc1` the T/C [7] was 113 % of control and 120 % of control.

With `OCCN(CCO)Cc1nc2ccccc2[nH]1` the T/C (dose: 50.0 mg/kg/injection, schedule: Q01DX005 (ip), vehicle: saline) was 104 % of control, the T/C (dose: 100.0 mg/kg/injection, schedule: Q01DX005 (ip), vehicle: saline) was 99 % of control and the T/C (dose: 200.0 mg/kg/injection, schedule: Q01DX005 (ip), vehicle: saline) was 101 % of control.

In the case of `CC(C)CC(NC(=O)C1CCCN1)C(=O)NC(CC(C)C)C(=O)OC(C)(C)C` (stereo not drawn) (H-Pro-Leu-Leu-OtBu; configuration not given here), the T/C (dose: 50.0 mg/kg/injection, schedule: Q01DX005 (ip), vehicle: Klucel (hydroxypropylcellulose) (HPC)) is reported as 102 % of control, the T/C (dose: 100.0 mg/kg/injection, schedule: Q01DX005 (ip), vehicle: Klucel (hydroxypropylcellulose) (HPC)) is reported as 99 % of control and the T/C (dose: 200.0 mg/kg/injection, schedule: Q01DX005 (ip), vehicle: Klucel (hydroxypropylcellulose) (HPC)) is reported as 96 % of control.

`S=C(N/N=C/c1ccncc1)Nc1ccccc1` was tested, and the T/C [4] was 99 % of control, the T/C [5] was 100 % of control and the T/C [6] was 91 % of control.

With `S=CN1CCCCC1` the T/C (dose: 15.0 mg/kg/injection, schedule: Q01DX005 (ip), vehicle: saline with Tween-80) was 98 % of control, the T/C (dose: 30.0 mg/kg/injection, schedule: Q01DX005 (ip), vehicle: saline with Tween-80) was 106 % of control and the T/C [1] was 106 % of control.

`CC1(C)C2CCC(C2)C1OC(=O)c1ccccc1C(=O)O` (stereo unspecified) was tested, and the T/C [1] was 99 % of control, the T/C [2] was 98 % of control and the T/C [3] was 104 % of control.

For `COc1ccc(C=Nc2c(N)[nH]c(=S)[nH]c2=O)cc1`, the T/C (dose: 100.0 mg/kg/injection, schedule: Q04DX002 (ip), vehicle: saline with Tween-80) was 100 % of control, the T/C (dose: 200.0 mg/kg/injection, schedule: Q04DX002 (ip), vehicle: saline with Tween-80) was 106 % of control and the T/C (dose: 400.0 mg/kg/injection, schedule: Q04DX002 (ip), vehicle: saline with Tween-80) was 107 % of control. The T/C (dose: 600.0 mg/kg/injection, schedule: Q04DX002 (ip), vehicle: saline with Tween-80) was 106 % of control.

`O=C(Cc1nc2cc(Cl)c(Cl)cc2nc1CC(=O)c1cccnc1)c1cccnc1` was tested, and the T/C [1] was 110 % of control, the T/C [2] was 103 % of control and the T/C [3] was 100 % of control.

`O=C(c1cc2c(cc1[N+](=O)[O-])OCO2)N1CCc2ccccc21` was tested, and the T/C (dose: 3.13 mg/kg/injection, schedule: Q01DX009 (ip), vehicle: saline with Tween-80) was 99 % of control, the T/C (dose: 6.25 mg/kg/injection, schedule: Q01DX009 (ip), vehicle: saline with Tween-80) was 99 % of control and the T/C (dose: 12.5 mg/kg/injection, schedule: Q01DX009 (ip), vehicle: saline with Tween-80) was 96 % of control. The T/C (dose: 25.0 mg/kg/injection, schedule: Q01DX009 (ip), vehicle: other) was 99 % of control, the T/C (dose: 25.0 mg/kg/injection, schedule: Q01DX009 (ip), vehicle: saline with Tween-80) was 94 % of control and the T/C (dose: 50.0 mg/kg/injection, schedule: Q01DX009 (ip), vehicle: other) was 100 % of control. For the same compound, the T/C (dose: 100.0 mg/kg/injection, schedule: Q01DX009 (ip), vehicle: other) was 107 % of control and the T/C (dose: 200.0 mg/kg/injection, schedule: Q01DX009 (ip), vehicle: other) was 89 % of control.

For `O=C1NC(O)c2cccc(Br)c2O1` (stereo unspecified), the T/C [7] was 93 % of control, the T/C (dose: 100.0 mg/kg/injection, schedule: Q01DX005 (ip), vehicle: saline with Tween-80) was 107 % of control and the T/C (dose: 200.0 mg/kg/injection, schedule: Q01DX005 (ip), vehicle: saline with Tween-80) was 117 % of control.

With `CC1CCCCC1O` (stereo unspecified) the T/C (dose: 50.0 mg/kg/injection, schedule: Q04DX003 (ip), vehicle: saline with Tween-80) was 110 % of control, the T/C (dose: 100.0 mg/kg/injection, schedule: Q04DX003 (ip), vehicle: saline with Tween-80) was 115 % of control and the T/C (dose: 200.0 mg/kg/injection, schedule: Q04DX003 (ip), vehicle: saline with Tween-80) was 115 % of control.

`CCC(C)n1c(C)nc2cc(C(F)(F)F)cc(N)c21` (stereo unspecified) was tested, and the T/C (dose: 50.0 mg/kg/injection, schedule: Q01DX009 (ip), vehicle: saline + alcohol) was 99 % of control and the T/C (dose: 100.0 mg/kg/injection, schedule: Q01DX009 (ip), vehicle: saline + alcohol) was 99 % of control.

`Cc1ccc(NCCC2CCCN3CCCCC23)c2c(=O)c3ccccc3sc12` (stereo unspecified) was tested, and the T/C (dose: 12.5 mg/kg/injection, schedule: Q01DX005 (ip), vehicle: distilled water + Tween-80) was 100 % of control and the T/C (dose: 25.0 mg/kg/injection, schedule: Q01DX005 (ip), vehicle: distilled water + Tween-80) was 91 % of control.
